US12318462B2, “Multi-coated nanoparticles comprising multiple coating layers of chitosan and polyglutamic acid, composition for skin care comprising the same and method for manufacturing the same” (BINOTEC co., ltd., priority 2020, dated 2025)

Assay: DPPH radical scavenging ability of nanoparticles by time
Type: biochemical
Procedure: DPPH radical scavenging ability was measured to confirm the effect of antioxidant physiological activity according to the sustained-release release of nanoparticles according to the coating layer structure and amount of hydrogel.
50 μL of 0.2 mM 1,1-diphenyl-2-picrylhydrazyl (DPPH) was added to 100 ul of each sample solution. Then, it was stirred and reacted at room temperature for 30 minutes, and then the ELISA reader (Powerwave XS2, Biotek, USA) was used to measure the absorbance at […]. The control groups were Butylated Hydroxynisole (BHA) and Catechin.
Next, using Equation 2 below, the DPPH radical scavenging ability of each nanoparticle was calculated. DPPH radical scavenging ability (%)=(1−absorbance of sample added group/absorbance of no added group)×100 [Equation 2]

Molecule | DPPH radical scavenging ability (18 hr) [%] | DPPH radical scavenging ability (24 hr) [%] | DPPH radical scavenging ability (48 hr) [%]
COc1ccc(O)c(C(C)(C)C)c1 [BHA, Butylated Hydroxynisole] | 93.2084 | 82.3362 | 47.0031
Catechin | 93.4211 | 87.4680 | 70.5607
